Assay results as given in article PMC12083526, “Capturing structural intermediates in an animal-like cryptochrome photoreceptor by time-resolved crystallography” (Science Advances, 2025).

Tests used:
[1] = biological target: T1, CraCRYΔCTE (CraCRY; animal-like cryptochrome, aCRY) (Chlamydomonas reinhardtii, UniProt A8J8W0, E384Q); test: steady-state photoreduction, UV/Vis absorption; format: binding; settings: white light on ice, aerobic, no external reductant; 20 mM phosphate, 500 mM NaCl, 10% glycerol, pH 5.5-8.5
T1 construct: gene CHLRE_06g278251v5; C-terminal extension E496-E595 replaced by a His tag; pET28a-based; E. coli BL21(DE3); PHR domain plus helix α22
T1 sequence (A8J8W0 entry or part of it E384Q): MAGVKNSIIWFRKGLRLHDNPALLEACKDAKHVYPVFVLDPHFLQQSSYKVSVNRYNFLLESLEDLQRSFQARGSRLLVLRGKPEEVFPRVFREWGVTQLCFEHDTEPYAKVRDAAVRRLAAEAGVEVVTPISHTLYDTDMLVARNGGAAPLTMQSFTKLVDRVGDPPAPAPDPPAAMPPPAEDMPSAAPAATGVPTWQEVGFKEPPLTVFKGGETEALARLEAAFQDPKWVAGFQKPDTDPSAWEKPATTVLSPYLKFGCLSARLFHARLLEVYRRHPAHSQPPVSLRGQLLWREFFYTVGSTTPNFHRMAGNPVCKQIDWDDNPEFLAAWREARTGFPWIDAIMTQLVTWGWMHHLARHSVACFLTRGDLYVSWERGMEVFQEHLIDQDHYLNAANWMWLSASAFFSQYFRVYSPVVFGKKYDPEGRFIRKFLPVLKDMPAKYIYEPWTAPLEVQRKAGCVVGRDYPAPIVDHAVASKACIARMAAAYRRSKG

[2] = biological target: T2, CraCRYΔCTE (CraCRY; animal-like cryptochrome, aCRY) (Chlamydomonas reinhardtii, UniProt A8J8W0); test: serial femtosecond crystallography (room temperature); settings: crystals reduced with 50 mM DTT and white light, anaerobic; FAD-binding site
T2 construct: gene CHLRE_06g278251v5; C-terminal extension E496-E595 replaced by a His tag; pET28a-based; E. coli BL21(DE3); PHR domain plus helix α22
T2 sequence (A8J8W0 entry or part of it, stated change not applied): as the sequence (A8J8W0 entry or part of it E384Q) above, with Q384E counted along it

Compound | steady-state photoreduction, UV/Vis absorption [1] | serial femtosecond crystallography (room temperature) [2]
Cc1cc2nc3c(=O)[nH]c(=O)nc-3n(C[C@H](O)[C@H](O)[C@H](O)COP(=O)(O)OP(=O)(O)OC[C@H]3O[C@@H](n4cnc5c(N)ncnc54)[C@H](O)[C@@H]3O)c2cc1C [FADox, flavin adenine dinucleotide] | E384Q is inefficient to generate the neutral radical FADH^• at physiological pH | 
Cc1cc2c(cc1C)N(C[C@H](O)[C@H](O)[C@H](O)COP(=O)(O)OP(=O)(O)OC[C@H]1O[C@@H](n3cnc4c(N)ncnc43)[C@H](O)[C@@H]1O)c1[nH]c(=O)[nH]c(=O)c1N2 [FADH^−] |  | CraCRY structures in FADox and FADH^− states at room temperature are almost identical
